# Experimental data reported in publication PMC7914897, “Cytotoxic Potential of a-Azepano- and 3-Amino-3,4-SeCo-Triterpenoids” (International Journal of Molecular Sciences, 2021).
# Read-outs that look alike come from different tables or passages of the source.
# What was measured:
# CAKI-1 (Renal cancer) = assay: NCI-60 screen (SRB, 48 h); settings: Homo sapiens; for GI50: CAKI-1; for IC (TGI): CAKI-1, 48 h, read-out: TGI; for CC50: CAKI-1, read-out: LC50
# [1] = test system: NCI-H23 (NSC lung cancer); assay: NCI-60 screen (SRB, 48 h); settings: Homo sapiens; for GI50: NCI-H23; for IC (TGI): NCI-H23, 48 h, read-out: TGI; for CC50: NCI-H23, read-out: LC50
# LOX IMVI (Melanoma) = assay: NCI-60 screen (SRB, 48 h); assay type: cell-based; settings: Homo sapiens; for IC (TGI) / activity at 10 µM: 48 h; for activity at 10 µM: 1 dose 10 µM, read-out: Growth % of the Most Sensitive Cell Lines; for GI50: read-out: GI50; for CC50: read-out: LC50 (the source's name)
# [2] = test system: A549/ATCC (NSC lung cancer); assay: NCI-60 screen (SRB, 48 h); settings: Homo sapiens; for GI50: A549; for IC (TGI): A549, 48 h, read-out: TGI
# Ovarian Cancer subpanel = assay: NCI-60 screen, subpanel; settings: Homo sapiens; for IC (TGI): 48 h, read-out: TGI MG_MID; for GI50: read-out: GI50 MG_MID; for CC50: read-out: LC50 MG_MID
# SF-268 (CNS cancer) = assay: NCI-60 screen (SRB, 48 h); settings: Homo sapiens; for GI50: SF-268; for IC (TGI): SF-268, 48 h, read-out: TGI; for CC50: SF-268, read-out: LC50
# SF-539 (CNS cancer) = assay: NCI-60 screen (SRB, 48 h); settings: Homo sapiens; for GI50: SF-539; for IC (TGI): SF-539, 48 h, read-out: TGI; for CC50: SF-539, read-out: LC50
# RXF 393 (Renal cancer) = assay: NCI-60 screen (SRB, 48 h); settings: Homo sapiens; for GI50: RXF 393; for IC (TGI): RXF 393, 48 h, read-out: TGI; for CC50: RXF 393, read-out: LC50
# [3] = test system: A375 (malignant melanoma); assay: SRB cytotoxicity assay, 72 h; assay type: cell-based, human; settings: A375, 72 h, cut-off 30 µM
# Procedure, shortened: (§1)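 Absorbance at 570 nm of SRB-stained cells gives % survival vs untreated controls, from which EC50 is determined. Treatment: 0–30 µM serial dilutions, 72 h, beginning 24 h post-seeding; DMSO ≤0.5%. TCA (10%) fixation, acetic acid wash.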
# [4] = test system: A2780 (ovarian carcinoma); assay: SRB cytotoxicity assay, 72 h; assay type: cell-based, human; settings: A2780, 72 h, cut-off 30 µM
# Procedure, shortened: as §1
# [5] = test system: HT29 (colorectal carcinoma); assay: SRB cytotoxicity assay, 72 h; assay type: cell-based, human; settings: HT29, 72 h, cut-off 30 µM
# Procedure, shortened: as §1
# [6] = test system: FaDu (hypopharyngeal carcinoma); assay: SRB cytotoxicity assay, 72 h; assay type: cell-based, human; settings: cut-off 30 µM
# Procedure, shortened: as §1
# MCF-7 (breast carcinoma) = assay: SRB cytotoxicity assay, 72 h; assay type: cell-based, human; settings: MCF-7, 72 h, cut-off 30 µM
# Procedure, shortened: as §1
# Breast cancer subpanel = assay: NCI-60 screen, subpanel; settings: Homo sapiens; for IC (TGI): 48 h, read-out: TGI MG_MID; for GI50: read-out: GI50 MG_MID; for CC50: read-out: LC50 MG_MID
# SF-295 (CNS cancer) = assay: NCI-60 screen (SRB, 48 h); settings: Homo sapiens; for GI50: SF-295; for IC (TGI): SF-295, 48 h, read-out: TGI; for CC50: SF-295, read-out: LC50
# [7] = test system: NCI-H460 (NSC lung cancer); assay: NCI-60 screen (SRB, 48 h); settings: Homo sapiens; for GI50: NCI-H460; for IC (TGI): NCI-H460, 48 h, read-out: TGI; for CC50: NCI-H460, read-out: LC50
# M14 (Melanoma) = assay: NCI-60 screen (SRB, 48 h); settings: for GI50 / IC (TGI) / CC50: Homo sapiens; for GI50: M14; for IC (TGI): M14, 48 h, read-out: TGI; for CC50: M14, read-out: LC50
# [8] = test system: NCI-H522 (NSC lung cancer); assay: NCI-60 screen (SRB, 48 h); settings: Homo sapiens; for GI50: NCI-H522; for IC (TGI): NCI-H522, 48 h, read-out: TGI
# SK-MEL-2 (Melanoma) = assay: NCI-60 screen (SRB, 48 h); settings: Homo sapiens; for GI50: SK-MEL-2; for IC (TGI): SK-MEL-2, 48 h, read-out: TGI; for CC50: SK-MEL-2, read-out: LC50
# OVCAR-5 (Ovarian cancer) = assay: NCI-60 screen (SRB, 48 h); settings: Homo sapiens; for GI50: OVCAR-5; for IC (TGI): OVCAR-5, 48 h, read-out: TGI; for CC50: OVCAR-5, read-out: LC50
# NSC lung cancer subpanel = assay: NCI-60 screen, subpanel; settings: Homo sapiens; for IC (TGI): 48 h, read-out: TGI MG_MID; for GI50: read-out: GI50 MG_MID; for CC50: read-out: LC50 MG_MID
# SK-MEL-28 (Melanoma) = assay: NCI-60 screen (SRB, 48 h); settings: for GI50 / IC (TGI) / CC50: Homo sapiens; for GI50: SK-MEL-28; for IC (TGI): SK-MEL-28, 48 h, read-out: TGI; for CC50: SK-MEL-28, read-out: LC50
# U251 (CNS cancer) = assay: NCI-60 screen (SRB, 48 h); settings: for GI50: U-251; for IC (TGI): U-251, 48 h, read-out: TGI
# CNS cancer subpanel = assay: NCI-60 screen, subpanel; settings: Homo sapiens; for IC (TGI): 48 h, read-out: TGI MG_MID; for GI50: read-out: GI50 MG_MID; for CC50: read-out: LC50 MG_MID
compound,measurement,setting,value
"CC1(C)CC[C@]2(CO)CC[C@]3(C)C(=CC[C@@H]4[C@@]5(C)CCCNC(C)(C)[C@@H]5CC[C@]43C)[C@@H]2C1 [Compound 3, azepanoerythrodiol]",GI50,CAKI-1 (Renal cancer),3.05 µM
same,IC (TGI),CAKI-1 (Renal cancer),13.7 µM
same,CC50,CAKI-1 (Renal cancer),53.6 µM
same,GI50,[1],1.11 µM
same,IC (TGI),[1],24.6 µM
same,CC50,[1],54.5 µM
same,IC (TGI),LOX IMVI (Melanoma),3.19 µM
same,activity at 10 µM,LOX IMVI (Melanoma),-88.2%
same,GI50,LOX IMVI (Melanoma),1.68 µM
same,CC50,LOX IMVI (Melanoma),6.05 µM
same,GI50,[2],4.62 µM
same,IC (TGI),[2],17.8 µM
same,CC50,"[2]; A549, read-out: LC50",52.4 µM
same,IC (TGI),Ovarian Cancer subpanel,19.1 µM
same,GI50,Ovarian Cancer subpanel,7.75 µM
same,CC50,Ovarian Cancer subpanel,45.6 µM
same,GI50,SF-268 (CNS cancer),2.9 µM
same,IC (TGI),SF-268 (CNS cancer),9.77 µM
same,CC50,SF-268 (CNS cancer),65.6 µM
same,GI50,SF-539 (CNS cancer),11 µM
same,IC (TGI),SF-539 (CNS cancer),2.41 µM
same,CC50,SF-539 (CNS cancer),52.7 µM
same,GI50,RXF 393 (Renal cancer),2.88 µM
same,IC (TGI),RXF 393 (Renal cancer),11.7 µM
same,CC50,RXF 393 (Renal cancer),48.6 µM
same,EC50,[3],n.s.
same,EC50,[4],n.s.
same,EC50,[5],n.s.
same,EC50,[6],n.s.
same,EC50,MCF-7 (breast carcinoma),n.s.
same,IC (TGI),Breast cancer subpanel,14.6 µM
same,GI50,Breast cancer subpanel,3.12 µM
same,CC50,Breast cancer subpanel,43.6 µM
same,GI50,SF-295 (CNS cancer),1.77 µM
same,IC (TGI),SF-295 (CNS cancer),3.62 µM
same,CC50,SF-295 (CNS cancer),7.4 µM
same,GI50,[7],1.92 µM
same,IC (TGI),[7],3.8 µM
same,CC50,[7],7.56 µM
same,GI50,M14 (Melanoma),2.04 µM
same,IC (TGI),M14 (Melanoma),3.87 µM
same,CC50,M14 (Melanoma),7.34 µM
same,Growth % of the Most Sensitive Cell Lines,"M14 (Melanoma); M14, 1 dose 10 µM",−82.21%
same,GI50,[8],2.04 µM
same,IC (TGI),[8],4.19 µM
same,CC50,"[8]; NCI-H522, read-out: LC50",8.59 µM
same,GI50,SK-MEL-2 (Melanoma),3.25 µM
same,IC (TGI),SK-MEL-2 (Melanoma),8.17 µM
same,CC50,SK-MEL-2 (Melanoma),36.7 µM
same,GI50,OVCAR-5 (Ovarian cancer),11.9 µM
same,IC (TGI),OVCAR-5 (Ovarian cancer),24.6 µM
same,CC50,OVCAR-5 (Ovarian cancer),51 µM
same,IC (TGI),NSC lung cancer subpanel,17.8 µM
same,GI50,NSC lung cancer subpanel,2.87 µM
same,CC50,NSC lung cancer subpanel,44.1 µM
same,GI50,SK-MEL-28 (Melanoma),1.7 µM
same,IC (TGI),SK-MEL-28 (Melanoma),3.14 µM
same,CC50,SK-MEL-28 (Melanoma),5.78 µM
same,Growth % of the Most Sensitive Cell Lines,"SK-MEL-28 (Melanoma); SK-MEL-28, 1 dose 10 µM",−81.53%
same,GI50,U251 (CNS cancer); Homo sapiens,1.94 µM
same,IC (TGI),U251 (CNS cancer); Homo sapiens,4.18 µM
same,CC50,"U251 (CNS cancer); Homo sapiens, U-251, read-out: LC50",9 µM
same,IC (TGI),CNS cancer subpanel,4.13 µM
same,GI50,CNS cancer subpanel,6.53 µM
same,CC50,CNS cancer subpanel,40 µM
CC(C)=C1CCC=C2CC[C@]3(C)[C@H](CC[C@@H]4[C@@]5(C)CCCNC(C)(C)[C@@H]5CC[C@]43C)[C@H]21 [Compound 9],GI50,CAKI-1 (Renal cancer),1.69 µM
same,IC (TGI),CAKI-1 (Renal cancer),3.05 µM
same,CC50,CAKI-1 (Renal cancer),5.53 µM
same,GI50,[1],1.78 µM
same,IC (TGI),[1],3.37 µM
same,CC50,[1],6.39 µM
same,IC (TGI),LOX IMVI (Melanoma),3.01 µM
same,activity at 10 µM,LOX IMVI (Melanoma),-100%
same,GI50,LOX IMVI (Melanoma),1.65 µM
same,CC50,LOX IMVI (Melanoma),5.49 µM
same,GI50,[2],1.79 µM
same,IC (TGI),[2],3.52 µM
same,IC (TGI),Ovarian Cancer subpanel,3.51 µM
same,GI50,Ovarian Cancer subpanel,1.86 µM
same,CC50,Ovarian Cancer subpanel,6.19 µM
same,GI50,SF-268 (CNS cancer),1.97 µM
same,IC (TGI),SF-268 (CNS cancer),3.71 µM
same,CC50,SF-268 (CNS cancer),6.98 µM
same,GI50,SF-539 (CNS cancer),1.69 µM
same,IC (TGI),SF-539 (CNS cancer),3.13 µM
same,CC50,SF-539 (CNS cancer),5.8 µM
same,GI50,RXF 393 (Renal cancer),1.61 µM
same,IC (TGI),RXF 393 (Renal cancer),3.1 µM
same,CC50,RXF 393 (Renal cancer),5.98 µM
same,EC50,"[3]; Homo sapiens, A-375, 72 h, read-out: EC50",1.71 ± 0.1 µM
same,EC50,"[4]; Homo sapiens, read-out: EC50",2.19 ± 0.1 µM
same,EC50,"[5]; Homo sapiens, HT-29, read-out: EC50",1.18 ± 0.1 µM
same,EC50,"[6]; Homo sapiens, read-out: EC50",1.58 ± 0.2 µM
same,EC50,"MCF-7 (breast carcinoma); Homo sapiens, MCF7, read-out: EC50",1.52 µM
same,IC (TGI),Breast cancer subpanel,3.49 µM
same,GI50,Breast cancer subpanel,1.72 µM
same,CC50,Breast cancer subpanel,7.06 µM
same,GI50,SF-295 (CNS cancer),1.87 µM
same,IC (TGI),SF-295 (CNS cancer),3.42 µM
same,CC50,SF-295 (CNS cancer),6.24 µM
same,GI50,[7],1.48 µM
same,IC (TGI),[7],3.09 µM
same,CC50,[7],6.45 µM
same,GI50,M14 (Melanoma),1.73 µM
same,IC (TGI),M14 (Melanoma),3.26 µM
same,CC50,M14 (Melanoma),6.12 µM
same,GI50,[8],1.8 µM
same,IC (TGI),[8],3.44 µM
same,GI50,SK-MEL-2 (Melanoma),1.81 µM
same,IC (TGI),SK-MEL-2 (Melanoma),3.48 µM
same,CC50,SK-MEL-2 (Melanoma),6.69 µM
same,GI50,OVCAR-5 (Ovarian cancer),1.67 µM
same,IC (TGI),OVCAR-5 (Ovarian cancer),3.07 µM
same,CC50,OVCAR-5 (Ovarian cancer),5.65 µM
same,IC (TGI),NSC lung cancer subpanel,3.27 µM
same,GI50,NSC lung cancer subpanel,1.68 µM
same,CC50,NSC lung cancer subpanel,6.11 µM
same,GI50,SK-MEL-28 (Melanoma),1.81 µM
same,IC (TGI),SK-MEL-28 (Melanoma),3.32 µM
same,CC50,SK-MEL-28 (Melanoma),6.11 µM
same,GI50,U251 (CNS cancer); Homo sapiens,1.69 µM
same,IC (TGI),U251 (CNS cancer); Homo sapiens,3.17 µM
same,Growth % of the Most Sensitive Cell Lines,"U251 (CNS cancer); U251, 1 dose 10 µM",−90.81%
same,IC (TGI),CNS cancer subpanel,3.44 µM
same,GI50,CNS cancer subpanel,1.83 µM
same,CC50,CNS cancer subpanel,6.61 µM
